Results reported in article PMC10748060, “In Silico and In Vitro Evaluation of the Mechanism of Action of Three VX809-Based Hybrid Derivatives as Correctors of the F508del CFTR Protein” (Pharmaceuticals, 2023).
Entries after “also recorded” stand apart in the source; their conditions may differ.

Key:
HEK-t cells = assay type: cell-based; parameters: TDMax (maximum toxicity): unit not given here; conditions: 24 h incubation, mean ± SEM
Experimental: (§1) In both cases, media were supplemented with 10% FBS, 2 mM L-Glutamine, 1% PenStrep (100 U/mL), 1 mg/mL geneticin (G418), and 0.6 mg/mL zeocin as selection agents. Cells were grown under standard CO2 and temperature conditions. Confluence of cell was avoided to prevent loss of differentiation.
(§2) Cells were seeded into 48-well plates at a concentration of 0.3 × 10^5 cells per well. […] After exposition, cells were trypsinised and harvested for toxicity evaluation. To avoid an underestimation of the number of dead cells, the cells that were detached from the plates during exposure to the compounds were collected and considered. For each condition tested, at least four technical replicates were evaluated. In each well, at least 100 cells were considered.

CFBE41O^− cells = assay type: cell-based; conditions: 24 h incubation, mean ± SEM
Experimental: as §1, §2

FRT cells = assay type: cell-based; conditions: 24 h incubation, mean ± SEM
Experimental: as §1, §2

[1] = Trypan blue cell viability at the working concentrations, all three cell lines; assay type: cell-based; conditions: human (HEK-t, CFBE41O^−) and rat (FRT), in all three cell lines; for viability at 24 h, 3 µM: at 3 μM
Experimental: as §1, §2

F508del CFTR [2] = target: T1, F508del CFTR (Homo sapiens, UniProt P13569, DEL508-508); assay: YFP functional assay in FRT cells
Experimental: (§3) The YFP functional assay was applied to assess whether the increase in protein expression induced by treatment with the compounds under investigation correlated with an increase in F508del CFTR channel activity.
(§4) Cells were then incubated with 60 µL PBS plus forskolin (20 µM) and VX-770 (1 µM) for 25 min to maximally stimulate F508del-CFTR. The cells were then transferred to a microplate reader (Tristar2 S, Berthold Technologies, Bad Wildbad, Germany) equipped with 485 nm excitation and 535 nm emission filters.
(§5) Iodide influx was detected as fluorescence quenching as the I^− anion bound to intracellular YFP. After background subtraction and normalisation to the average fluorescence before NaI addition, the initial fluorescence decay rate (QR) was derived by fitting the signal with an exponential function.

F508del CFTR [3] = target: T1, F508del CFTR; assay: YFP functional assay in CFBE41O^− cells
Experimental: as §3, §4, §5

MSD1 CFTR domain = MSD1 CFTR domain (Homo sapiens, UniProt P13569); assay: Western blot of CFTR single domain MSD1 in HEK-t cells; conditions: 3 µM VX661, 3 µM VX445, 2 µM 2a, 7m, 7a, normalised to actin and to untreated domain (times of DMSO control), mean ± sem
F508del NBD1 = F508del NBD1 (Homo sapiens, UniProt P13569, DEL508-508); assay: Cycloheximide chase assay of F508del NBD1 in HEK-t cells; conditions: for effect on stability / half-life of F508del NBD1 versus DMSO control: cycloheximide chase, result in words; for F508del NBD1 expression after cycloheximide, relative to time 0: 3 µM VX661/VX445, 2 µM 2a/7m/7a, mean ± sem
Experimental: The stability of NBD1-F508del was evaluated according to a previously established procedure [38, 50, 51]. […] Cells were harvested at six different time points (after 0, 1, 2, 4, 6, and 8 h), and samples of whole-cell SDS extracts were subjected to immunoblot analysis.

F508del CFTR [4] = target: T1, F508del CFTR; parameters: Assessing the Impact of Corrector Combinations on Full-Length F508del CFTR Function; expressed in transfected cells; host or cells: Fisher rat thyroid (FRT) cells; human bronchial epithelial CFBE41o- cells; conditions: Figure 1B; read-out: corrector half-maximal effective concentration (EC50); cited from earlier work
R domain of CFTR = R domain of CFTR (Homo sapiens, UniProt P13569); assay: Western blot of CFTR R domain in HEK-t cells; conditions: 3 µM VX661, 3 µM VX445, 2 µM 2a, 7m, 7a, normalised to actin and to untreated domain, mean ± sem
WT NBD1 CFTR domain = WT NBD1 CFTR domain (Homo sapiens, UniProt P13569); assay: Western blot of CFTR single domain WT NBD1 in HEK-t cells; conditions: 3 µM VX661, 3 µM VX445, 2 µM 2a, 7m, 7a, normalised to actin and to untreated domain, mean ± sem
[5] = 3 μM VX661, 3 μM VX445, 2 μM 2a, 7m, 7a, 18 h, forskolin + VX-770 stimulation

Chain of F508del NBD1 (P13569 with tags, fused parts or gaps DEL508-508): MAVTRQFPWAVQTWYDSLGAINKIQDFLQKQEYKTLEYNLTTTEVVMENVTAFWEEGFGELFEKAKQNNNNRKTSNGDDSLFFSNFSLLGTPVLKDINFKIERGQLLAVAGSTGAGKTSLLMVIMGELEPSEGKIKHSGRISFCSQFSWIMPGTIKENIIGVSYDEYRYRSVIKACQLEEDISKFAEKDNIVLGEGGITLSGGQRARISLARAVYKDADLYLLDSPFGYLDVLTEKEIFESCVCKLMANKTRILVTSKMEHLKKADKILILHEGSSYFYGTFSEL
T1 sequence (P13569 with tags, fused parts or gaps DEL508-508): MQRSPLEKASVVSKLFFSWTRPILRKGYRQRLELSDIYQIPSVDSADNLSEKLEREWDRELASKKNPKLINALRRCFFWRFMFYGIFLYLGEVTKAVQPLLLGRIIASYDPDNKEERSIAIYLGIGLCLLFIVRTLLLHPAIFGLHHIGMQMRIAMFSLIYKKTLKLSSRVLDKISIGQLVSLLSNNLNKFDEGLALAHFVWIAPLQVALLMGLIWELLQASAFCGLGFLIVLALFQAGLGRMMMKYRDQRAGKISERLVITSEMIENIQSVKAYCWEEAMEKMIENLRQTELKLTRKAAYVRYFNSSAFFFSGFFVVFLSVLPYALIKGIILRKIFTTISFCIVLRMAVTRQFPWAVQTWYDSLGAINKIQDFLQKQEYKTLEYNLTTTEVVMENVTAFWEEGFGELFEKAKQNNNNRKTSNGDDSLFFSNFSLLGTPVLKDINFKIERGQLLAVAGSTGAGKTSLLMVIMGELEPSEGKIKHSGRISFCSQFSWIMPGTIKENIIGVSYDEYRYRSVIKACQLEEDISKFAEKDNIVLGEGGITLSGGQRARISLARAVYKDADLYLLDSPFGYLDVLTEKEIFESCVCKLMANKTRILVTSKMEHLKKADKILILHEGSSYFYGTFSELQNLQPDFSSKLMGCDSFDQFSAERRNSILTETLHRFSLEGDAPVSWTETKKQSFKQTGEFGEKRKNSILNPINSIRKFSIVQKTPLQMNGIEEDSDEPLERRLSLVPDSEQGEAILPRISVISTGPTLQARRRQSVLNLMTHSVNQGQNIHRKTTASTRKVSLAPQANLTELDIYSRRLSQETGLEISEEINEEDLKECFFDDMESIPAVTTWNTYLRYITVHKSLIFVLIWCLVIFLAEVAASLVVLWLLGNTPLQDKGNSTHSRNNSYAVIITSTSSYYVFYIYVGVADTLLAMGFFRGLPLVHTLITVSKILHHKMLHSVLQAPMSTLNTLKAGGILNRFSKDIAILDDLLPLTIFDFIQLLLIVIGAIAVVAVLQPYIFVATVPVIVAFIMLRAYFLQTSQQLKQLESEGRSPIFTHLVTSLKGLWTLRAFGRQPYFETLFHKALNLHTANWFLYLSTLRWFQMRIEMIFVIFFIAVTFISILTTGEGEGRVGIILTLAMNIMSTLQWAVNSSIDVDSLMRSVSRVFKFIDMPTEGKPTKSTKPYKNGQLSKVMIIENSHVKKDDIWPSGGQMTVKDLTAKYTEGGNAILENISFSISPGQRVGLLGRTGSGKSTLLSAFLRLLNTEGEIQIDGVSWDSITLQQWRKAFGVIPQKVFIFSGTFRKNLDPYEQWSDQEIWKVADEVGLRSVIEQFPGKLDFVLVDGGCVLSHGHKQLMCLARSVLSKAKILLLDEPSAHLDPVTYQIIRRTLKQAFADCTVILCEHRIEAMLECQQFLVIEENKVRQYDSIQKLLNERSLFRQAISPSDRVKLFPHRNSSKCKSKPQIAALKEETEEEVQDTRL
Chain of R domain of CFTR (P13569 645-834): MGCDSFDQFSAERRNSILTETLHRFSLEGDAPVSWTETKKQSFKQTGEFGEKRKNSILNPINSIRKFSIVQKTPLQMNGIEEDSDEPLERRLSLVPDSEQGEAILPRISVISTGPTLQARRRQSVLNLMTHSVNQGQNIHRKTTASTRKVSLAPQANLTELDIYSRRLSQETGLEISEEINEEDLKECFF
Chain of WT NBD1 CFTR domain (P13569 348-633): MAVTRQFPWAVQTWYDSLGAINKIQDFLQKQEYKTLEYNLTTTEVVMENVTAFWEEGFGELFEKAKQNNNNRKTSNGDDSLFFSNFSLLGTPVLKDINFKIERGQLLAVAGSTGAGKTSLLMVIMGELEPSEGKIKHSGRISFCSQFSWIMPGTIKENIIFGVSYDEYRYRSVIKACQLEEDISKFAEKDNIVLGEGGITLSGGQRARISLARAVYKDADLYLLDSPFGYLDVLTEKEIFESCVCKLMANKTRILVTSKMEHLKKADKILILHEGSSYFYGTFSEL
Chain of MSD1 CFTR domain (P13569 1-388): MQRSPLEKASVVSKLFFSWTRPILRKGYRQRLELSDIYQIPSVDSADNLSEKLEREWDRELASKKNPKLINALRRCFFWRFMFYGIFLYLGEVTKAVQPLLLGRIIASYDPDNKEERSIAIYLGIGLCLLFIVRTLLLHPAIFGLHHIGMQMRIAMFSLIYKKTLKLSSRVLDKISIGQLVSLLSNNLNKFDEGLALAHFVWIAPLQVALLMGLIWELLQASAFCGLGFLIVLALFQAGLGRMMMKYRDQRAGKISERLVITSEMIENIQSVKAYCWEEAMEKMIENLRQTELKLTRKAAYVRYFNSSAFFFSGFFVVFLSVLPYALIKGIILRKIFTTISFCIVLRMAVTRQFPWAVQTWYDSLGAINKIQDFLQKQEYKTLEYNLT

Structure (SMILES)	TD50 (concentration required to achieve half maximum toxicity) (HEK-t cells) [µM]	TD50 (concentration required to achieve half maximum toxicity) (CFBE41O^− cells) [µM]	TDMax (maximum toxicity) (CFBE41O^− cells) [µM]	TD50 (concentration required to achieve half maximum toxicity) (FRT cells) [µM]	TDMax (maximum toxicity) (FRT cells) [µM]	F508del NBD1 expression level, % of the initial level (F508del NBD1; 2 h after cycloheximide) [%]	F508del NBD1 expression level, % of the initial level (F508del NBD1; 4 h after cycloheximide) [%]	F508del NBD1 expression level, % of the initial level (F508del NBD1; 6 h after cycloheximide) [%]	effect on stability / half-life of F508del NBD1 versus DMSO control (F508del NBD1)	F508del NBD1 expression after cycloheximide, relative to time 0 (F508del NBD1; time 0 h)	F508del NBD1 expression after cycloheximide, relative to time 0 (F508del NBD1; time 1 h)	F508del NBD1 expression after cycloheximide, relative to time 0 (F508del NBD1; time 2 h)	F508del NBD1 expression after cycloheximide, relative to time 0 (F508del NBD1; time 4 h)	F508del NBD1 expression after cycloheximide, relative to time 0 (F508del NBD1; time 6 h)	F508del NBD1 expression after cycloheximide, relative to time 0 (F508del NBD1; time 8 h)	viability at 24 h, 3 µM [1] [%]	R domain expression level (R domain of CFTR)	WT NBD1 expression level (WT NBD1 CFTR domain)	other results
O=C(c1ccccc1)c1sc(NC(=O)C2(c3ccc4c(c3)OCO4)CC2)nc1-c1ccccc1 [2a]	2.44 ± 1.03	10.11 ± 1.80	14.44 ± 0.06	9.24 ± 2.25	20.56 ± 0.06	78	63	45	significant increase; also recorded: significantly higher	1.00 ± 0.08	0.87 ± 0.05	0.78 ± 0.08	0.63 ± 0.03	0.45± 0.06	0.34 ± 0.03				TDMax (maximum toxicity) (HEK-t cells): 5.78 ± 0.04; viability at 24 h, 2 µM ([1]; at 2 μM): ≥ 90%; increase of YFP initial quenching rate (QR, iodide influx) over the control condition (F508del CFTR [2]; [5]): significantly increased; F508del CFTR channel activity (QR) of double combinations with VX445, compared with VX445 alone (F508del CFTR [2]; result in words): none of the combinations with compound 2a produced an effect greater; F508del CFTR channel activity (QR) of double combinations with VX661, compared with VX661 alone (F508del CFTR [2]; result in words): none of the combinations with compound 2a produced an effect greater; increase of YFP initial quenching rate (QR, iodide influx) over the control condition (F508del CFTR [3]; [5]): significantly increased; F508del CFTR channel activity (QR) of double combinations with VX445, compared with VX445 alone (F508del CFTR [3]; result in words): none of the combinations with compound 2a produced an effect greater; F508del CFTR channel activity (QR) of double combinations with VX661, compared with VX661 alone (F508del CFTR [3]; result in words): none of the combinations with compound 2a produced an effect greater; MSD1 expression level (MSD1 CFTR domain): 1.04 ± 0.05
CSc1cccc(Nc2nc(-c3cccc(Cl)c3)cs2)c1 [FCG]																			EC50 (F508del CFTR [4]): 5.3 µM
Cc1nn(C)cc1S(=O)(=O)NC(=O)c1ccc(-n2ccc(OCC(C)(C)C(F)(F)F)n2)nc1N1C[C@@H](C)CC1(C)C [VX445, elexacaftor]	9.60 ± 2.25	11.75 ± 3.42	23.60 ± 0.07	4.29 ± 0.32	10.79 ± 0.01	65	42	27	did not prolong the half-life	1.00 ± 0.04	0.75 ± 0.12	0.65 ± 0.07	0.42 ± 0.09	0.27 ± 0.05	0.14 ± 0.03	≥ 90	1.01 ± 0.04	1.02 ± 0.18	
CC(C)(CO)c1cc2cc(NC(=O)C3(c4ccc5c(c4)OC(F)(F)O5)CC3)c(F)cc2n1C[C@@H](O)CO [VX661, tezacaftor]	27.15 ± 17.88	7.51 ± 2.22	15.62 ± 0.06	11.09 ± 3.22	23.59 ± 0.08	62	45	26	did not prolong the half-life	1.00 ± 0.02	0.73 ± 0.12	0.62 ± 0.13	0.45 ± 0.11	0.26 ± 0.08	0.09 ± 0.03	≥ 90	1.06± 0.09	1.00± 0.15	
